# Assay results from ChEMBL document CHEMBL6109134, “Discovery of AMG 193, an MTA-Cooperative PRMT5 Inhibitor for the Treatment of MTAP-Deleted Cancers” (J Med Chem, 2025).
# How the values were obtained:
# HCT-116 [1] = assay: Antiproliferative activity against MTAP-deleted human HCT-116 cells assessed as effect on cell viability incubated for 6 days by Celltiter-Glo luminescent cell viability assay; type: functional, cell-based; conditions: HCT-116, 144 h
# Cytochrome P450 2C9 = Cytochrome P450 2C9 (Homo sapiens, UniProt P11712); assay: Inhibition of CYP2C9 (unknown origin)
# [2] = Metabolic stability in mouse hepatocytes assessed as intrinsic clearance measured per 10^6 cells; type: ADME, cell-based, Hepatocyte; conditions: read-out: CLH
# [3] = Antitumor activity against MTAP-deleted human U-87 MG cells xenografted in female athymic nude mouse model assessed as tumor growth inhibition at 30 mg/kg, po administered once daily for 14 days and measured 24 hrs post last dose relative to control; type: functional, U-87MG ATCC; conditions: 360 h, time 15 day, read-out: TGI
# BXPC-3 [4] = assay: Antitumor activity against MTAP-deleted human BXPC-3 cells xenografted in athymic nude mouse model assessed as tumor growth inhibition at 100 mg/kg, po administered once daily for 26 days and measured 24 hrs post last dose relative to control; type: functional; conditions: BXPC-3, 648 h, time 27 day, read-out: TGI
# [5] = target: Protein arginine N-methyltransferase 5 (Homo sapiens) (UniProt O14744); assay: In vivo inhibition of PRMT5 in athymic nude mouse xenografted with human HCT-116 cells harboring wildtype MTAP assessed as decrease in SDMA level in tumor at 10 mg/kg, po administered once daily for 4 days and measured 4 hrs post last dose by ELISA relative to control; type: functional, organism-based; conditions: time 4.0 day
# [6] = target: Protein arginine N-methyltransferase 5 (Homo sapiens) (UniProt O14744); assay: In vivo inhibition of PRMT5 in athymic nude mouse xenografted with MTAP-deleted human HCT-116 cells assessed as decrease in SDMA level in tumor at 30 mg/kg, po administered once daily for 4 days and measured 4 hrs post last dose by ELISA relative to control; type: functional, organism-based; conditions: time 4.0 day
# [7] = Solubility of compound in SIF at pH 6.8
# HCT-116 [8] = assay: Antitumor activity against MTAP-deleted human HCT-116 cells xenografted in female athymic nude mouse model assessed as tumor growth inhibition at 10 mg/kg, po administered once daily for 14 days relative to control; type: functional; conditions: HCT-116, 336 h, time 14 day, read-out: TGI
# BXPC-3 [9] = assay: Antiproliferative activity against human BXPC-3 cells assessed as effect on cell viability; type: functional, cell-based
# [10] = Protein binding in dog plasma assessed as unbound fraction by ultracentrifugation
# [11] = target: Protein arginine N-methyltransferase 5 (Homo sapiens) (UniProt O14744); assay: In vivo inhibition of PRMT5 in athymic nude mouse xenografted with human HCT-116 cells harboring wildtype MTAP assessed as decrease in SDMA level in tumor at 3 mg/kg, po administered once daily for 4 days and measured 4 hrs post last dose by ELISA relative to control; type: functional, organism-based; conditions: time 4.0 day
# [12] = target: PRMT5/MEP50 complex (Homo sapiens) (UniProt O14744+Q9BQA1); assay: Inhibition of human PRMT5/MEP50 at 10 uM relative to control; type: protein-complex assay
# in vivo = conditions: Sprague-Dawley, rat, po, 2 mg/kg, pH 2
# [13] = target: DNA (cytosine-5)-methyltransferase 1 (Homo sapiens) (UniProt P26358); assay: Activation of human DNMT1 at 10 uM relative to control
# [14] = target: Protein arginine N-methyltransferase 5 (Homo sapiens) (UniProt O14744); assay: In vivo inhibition of PRMT5 in female athymic nude mouse xenografted with MTAP-deleted human U-87 MG cells assessed as decrease in SDMA level in tumor at 30 mg/kg, po administered once daily for 14 days and measured 2 to 8 hrs post last dose by ELISA relative to control; type: functional, organism-based; conditions: time 338-344 hrs
# [15] = Toxicity in female athymic nude mouse xenografted with MTAP-deleted human U-87 MG cells assessed as effect on body weight at 10 to 100 mg/kg, po administered once daily for 14 days; type: organism-based; conditions: in vivo, 336 h, dose 10-100 mg/kg, time 14 day
# [16] = Protein binding in human plasma assessed as unbound fraction by ultracentrifugation
# [17] = Toxicity in female athymic nude mouse xenografted with human HCT-116 cells harboring wildtype MTAP assessed as body weight change at 3 to 100 mg/kg, po administered once daily for 14 days; type: organism-based; conditions: in vivo, 336 h, dose 3-100 mg/kg, time 14 day
# [18] = Toxicity in male rat up to 75 mg/kg, po administered as single dose for 14 days; type: organism-based; conditions: in vivo, 336 h, time 14 day
# BXPC-3 [19] = assay: Antitumor activity against MTAP-deleted human BXPC-3 cells xenografted in athymic nude mouse model assessed as tumor growth inhibition at 30 mg/kg, po administered once daily for 26 days and measured 24 hrs post last dose relative to control; type: functional; conditions: BXPC-3, 648 h, time 27 day, read-out: TGI
# [20] = target: T1, Nuclear receptor subfamily 1 group I member 2 (Homo sapiens, UniProt O75469); assay: Activation of human PXR in human HepG2 cells co-transfected with CYP3A4-luciferase at 10 uM incubated for 1 day relative to control; conditions: hepg2, 24 h
# T1 sequence (O75469 whole entry): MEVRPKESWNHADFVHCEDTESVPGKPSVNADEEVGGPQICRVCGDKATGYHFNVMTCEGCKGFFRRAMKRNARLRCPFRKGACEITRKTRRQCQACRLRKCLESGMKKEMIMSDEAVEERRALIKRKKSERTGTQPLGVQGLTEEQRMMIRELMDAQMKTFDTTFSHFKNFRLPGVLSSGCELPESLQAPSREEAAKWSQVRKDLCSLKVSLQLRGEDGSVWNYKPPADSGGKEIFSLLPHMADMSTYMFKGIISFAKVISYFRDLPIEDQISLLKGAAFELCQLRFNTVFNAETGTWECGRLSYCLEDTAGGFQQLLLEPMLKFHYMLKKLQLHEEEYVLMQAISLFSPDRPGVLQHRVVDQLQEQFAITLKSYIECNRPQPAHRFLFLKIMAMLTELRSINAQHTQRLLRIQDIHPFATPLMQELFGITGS
# [21] = Metabolic stability in rat liver microsomes assessed as intrinsic clearance; type: ADME, Microsome; conditions: time 40 min, read-out: CLH
# human MDR1 (P-gp) = assay: Efflux ratio of permeability across basolateral to apical side over apical to basolateral side in MDCK cells transfected with human MDR1 in absence of elacridar; conditions: dog
# [22] = Metabolic stability in mouse liver microsomes assessed as intrinsic clearance at 0.5 uM incubated for 40 mins in presence of NADPH; type: ADME, Microsome; conditions: read-out: CLH
# [23] = Clearance in Sprague-Dawley rat at 0.5 mg/kg, iv; conditions: in vivo
# [24] = Unbound CSF-to-plasma concentration ratio in male Sprague-Dawley rat at 25 mg/kg, po administered as single dose; type: ADME, organism-based
# [25] = Unbound clearance in CD-1 mouse at 1 mg/kg, iv; type: ADME, organism-based; conditions: in vivo
# HCT-116 [26] = assay: Antiproliferative activity against human HCT-116 cells harboring wildtype MTAP assessed as effect on cell viability incubated for 6 days by Celltiter-Glo luminescent cell viability assay; type: functional, cell-based; conditions: HCT-116, 144 h
# PRMT5/MEP50 complex = PRMT5/MEP50 complex (Homo sapiens, UniProt O14744)
# Description: Inhibition of PRMT5/MEP50 (unknown origin) preincubated with compound for 24 hrs in presence of SAM and MTA followed by Histone H4 (1-21)-Lys(Biotin) peptide addition and measured after 2 hrs by MTase-Glo reagent based assay
# Cytochrome P450 3A4 = Cytochrome P450 3A4 (Homo sapiens, UniProt P08684); assay: Inhibition of CYP3A4 (unknown origin)
# [27] = Unbound CSF-to-plasma concentration ratio in female Sprague-Dawley rat at 75 mg/kg, po administered as single dose; type: ADME, organism-based
# Protein arginine N-methyltransferase 5 (Homo sapiens), sequence (O14744 whole entry): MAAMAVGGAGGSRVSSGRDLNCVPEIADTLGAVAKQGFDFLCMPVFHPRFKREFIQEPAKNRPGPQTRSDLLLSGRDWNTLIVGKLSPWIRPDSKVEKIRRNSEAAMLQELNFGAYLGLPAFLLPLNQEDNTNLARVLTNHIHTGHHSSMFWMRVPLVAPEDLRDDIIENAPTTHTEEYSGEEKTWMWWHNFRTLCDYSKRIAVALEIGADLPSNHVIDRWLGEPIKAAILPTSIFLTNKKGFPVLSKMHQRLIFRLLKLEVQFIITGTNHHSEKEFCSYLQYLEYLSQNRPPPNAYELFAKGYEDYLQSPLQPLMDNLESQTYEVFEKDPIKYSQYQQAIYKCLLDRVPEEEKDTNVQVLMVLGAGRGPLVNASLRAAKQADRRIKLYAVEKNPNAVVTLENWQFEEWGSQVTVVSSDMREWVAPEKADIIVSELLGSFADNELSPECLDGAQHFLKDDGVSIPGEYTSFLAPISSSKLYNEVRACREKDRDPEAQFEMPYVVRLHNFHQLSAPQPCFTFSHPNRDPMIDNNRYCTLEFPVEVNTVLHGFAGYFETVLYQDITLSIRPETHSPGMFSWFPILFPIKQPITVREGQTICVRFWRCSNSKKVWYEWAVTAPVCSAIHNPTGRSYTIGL
# Cytochrome P450 2C9, sequence (P11712 whole entry): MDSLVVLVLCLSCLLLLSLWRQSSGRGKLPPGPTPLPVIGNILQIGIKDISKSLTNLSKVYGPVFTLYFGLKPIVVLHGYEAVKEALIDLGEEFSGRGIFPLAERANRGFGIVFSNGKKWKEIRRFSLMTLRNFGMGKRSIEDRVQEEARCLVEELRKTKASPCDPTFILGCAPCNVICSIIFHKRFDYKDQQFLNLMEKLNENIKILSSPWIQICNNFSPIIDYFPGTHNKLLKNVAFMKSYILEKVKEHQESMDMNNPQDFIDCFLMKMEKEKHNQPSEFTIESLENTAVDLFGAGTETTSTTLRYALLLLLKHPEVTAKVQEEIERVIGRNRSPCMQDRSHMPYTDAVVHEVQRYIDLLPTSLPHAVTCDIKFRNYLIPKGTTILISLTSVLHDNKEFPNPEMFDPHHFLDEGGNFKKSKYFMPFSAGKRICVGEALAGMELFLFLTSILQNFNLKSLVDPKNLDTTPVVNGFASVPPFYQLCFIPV
# Cytochrome P450 3A4, sequence (P08684 whole entry): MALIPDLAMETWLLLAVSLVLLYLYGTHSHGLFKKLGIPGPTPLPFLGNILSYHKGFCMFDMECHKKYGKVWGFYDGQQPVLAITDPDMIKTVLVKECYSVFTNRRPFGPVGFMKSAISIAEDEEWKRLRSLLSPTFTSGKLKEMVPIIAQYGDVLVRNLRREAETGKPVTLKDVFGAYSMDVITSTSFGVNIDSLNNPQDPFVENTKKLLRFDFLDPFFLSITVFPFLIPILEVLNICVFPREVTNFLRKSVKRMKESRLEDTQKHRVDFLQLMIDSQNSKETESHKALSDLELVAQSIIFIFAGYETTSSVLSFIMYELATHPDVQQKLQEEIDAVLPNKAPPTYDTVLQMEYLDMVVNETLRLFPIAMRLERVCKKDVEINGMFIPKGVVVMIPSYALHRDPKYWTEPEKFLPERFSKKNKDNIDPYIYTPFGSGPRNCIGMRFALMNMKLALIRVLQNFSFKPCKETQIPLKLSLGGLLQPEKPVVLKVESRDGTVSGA
# PRMT5/MEP50 complex, sequence (O14744 whole entry): as the sequence (O14744 whole entry) above
# PRMT5/MEP50 complex, sequence (Q9BQA1 whole entry, further chain): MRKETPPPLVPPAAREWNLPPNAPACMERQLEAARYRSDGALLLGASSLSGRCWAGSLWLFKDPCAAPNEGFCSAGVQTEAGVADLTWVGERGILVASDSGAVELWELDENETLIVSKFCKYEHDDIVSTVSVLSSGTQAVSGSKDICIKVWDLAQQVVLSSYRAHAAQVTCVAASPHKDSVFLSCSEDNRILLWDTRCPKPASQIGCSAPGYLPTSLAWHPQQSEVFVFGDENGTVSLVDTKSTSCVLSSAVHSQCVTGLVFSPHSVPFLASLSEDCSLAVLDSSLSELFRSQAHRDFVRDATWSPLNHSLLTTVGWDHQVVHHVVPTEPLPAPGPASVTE
# DNA (cytosine-5)-methyltransferase 1 (Homo sapiens), sequence (P26358 whole entry): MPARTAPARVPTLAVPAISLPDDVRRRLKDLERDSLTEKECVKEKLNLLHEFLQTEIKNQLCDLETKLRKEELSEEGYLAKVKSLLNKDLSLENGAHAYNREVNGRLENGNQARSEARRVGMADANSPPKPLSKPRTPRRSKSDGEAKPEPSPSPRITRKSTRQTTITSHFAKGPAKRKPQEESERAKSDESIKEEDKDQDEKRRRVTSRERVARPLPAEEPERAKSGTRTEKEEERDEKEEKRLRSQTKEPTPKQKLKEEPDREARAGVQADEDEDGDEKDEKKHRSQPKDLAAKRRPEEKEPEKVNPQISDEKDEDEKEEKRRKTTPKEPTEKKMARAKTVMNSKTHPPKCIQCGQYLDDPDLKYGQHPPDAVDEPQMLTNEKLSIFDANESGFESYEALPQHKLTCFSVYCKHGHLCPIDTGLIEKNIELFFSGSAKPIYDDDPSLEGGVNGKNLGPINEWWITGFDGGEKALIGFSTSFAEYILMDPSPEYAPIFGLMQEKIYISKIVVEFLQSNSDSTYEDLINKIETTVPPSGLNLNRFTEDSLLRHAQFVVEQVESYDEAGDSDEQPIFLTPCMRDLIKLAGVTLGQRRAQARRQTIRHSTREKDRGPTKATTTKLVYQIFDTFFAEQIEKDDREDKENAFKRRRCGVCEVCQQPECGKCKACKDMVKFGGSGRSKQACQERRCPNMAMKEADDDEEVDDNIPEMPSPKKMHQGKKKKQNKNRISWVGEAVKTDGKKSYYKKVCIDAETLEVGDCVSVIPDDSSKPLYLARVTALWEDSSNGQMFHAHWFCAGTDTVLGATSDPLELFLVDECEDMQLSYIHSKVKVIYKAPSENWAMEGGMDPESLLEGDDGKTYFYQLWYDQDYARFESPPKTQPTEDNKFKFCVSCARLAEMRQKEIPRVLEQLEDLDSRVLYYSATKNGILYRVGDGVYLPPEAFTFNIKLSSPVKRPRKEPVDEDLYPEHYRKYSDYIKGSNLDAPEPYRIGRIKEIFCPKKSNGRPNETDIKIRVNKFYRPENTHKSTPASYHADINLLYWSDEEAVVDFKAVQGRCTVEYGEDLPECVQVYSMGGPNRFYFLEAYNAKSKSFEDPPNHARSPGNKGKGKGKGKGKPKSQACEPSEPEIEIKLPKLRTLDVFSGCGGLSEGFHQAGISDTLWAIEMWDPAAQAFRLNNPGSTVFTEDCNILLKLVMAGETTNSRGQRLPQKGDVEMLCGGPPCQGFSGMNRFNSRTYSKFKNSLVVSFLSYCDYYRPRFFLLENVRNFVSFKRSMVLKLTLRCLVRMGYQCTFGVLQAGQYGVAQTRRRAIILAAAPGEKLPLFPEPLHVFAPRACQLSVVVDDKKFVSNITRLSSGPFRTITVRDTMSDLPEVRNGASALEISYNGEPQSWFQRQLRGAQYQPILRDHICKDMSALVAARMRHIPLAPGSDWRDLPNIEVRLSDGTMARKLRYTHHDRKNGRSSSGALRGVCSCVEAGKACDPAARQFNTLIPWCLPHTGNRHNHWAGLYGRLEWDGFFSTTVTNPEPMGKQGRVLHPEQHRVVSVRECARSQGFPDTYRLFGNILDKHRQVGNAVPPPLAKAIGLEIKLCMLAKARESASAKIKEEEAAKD
compound,measurement,setting,value
Nc1nc2cnc(C(=O)N3CCOC[C@@H]3c3ccc(C(F)(F)F)cc3)cc2c2c1COC2,IC50,HCT-116 [1],0.102 µM
same,IC50,Cytochrome P450 2C9,59 µM
same,hepatocyte CLint,[2],13 µL/min/1e6 cells
same,inhibition in vivo at 30 mg/kg,[3],57%
same,inhibition in vivo at 100 mg/kg,BXPC-3 [4],96%
same,inhibition,[5],32%
same,inhibition,[6],72%
same,solubility,[7],335 µM
same,inhibition in vivo at 10 mg/kg,HCT-116 [8],55%
same,IC50,BXPC-3 [9],0.218 µM
same,fraction unbound,[10],0.08
same,inhibition,[11],12%
same,inhibition,[12],84%
same,bioavailability,in vivo,60%
same,Activity,[13],32%
same,inhibition,[14],77%
same,Activity,[15],Non-toxic
same,fraction unbound,[16],0.11
same,Activity,[17],Non-toxic
same,Activity,[18],Non-toxic
same,inhibition in vivo at 30 mg/kg,BXPC-3 [19],61%
same,Activity,[20],< 20%
same,microsomal CLint at 0.5 µM,[21],123 µL/min/mg
same,efflux ratio,human MDR1 (P-gp),3
same,microsomal CLint at 0.5 µM,[22],37 µL/min/mg
same,clearance,[23],28.3 mL/min/kg
same,Kp uu,[24],0.24
same,CL free,[25],142 mL/min/kg
same,IC50,HCT-116 [26],4.33 µM
same,Ki,PRMT5/MEP50 complex,< 0.0001 µM
same,IC50,Cytochrome P450 3A4,124 µM
same,Kp uu,[27],0.2
